Earlier results in patent EP0839024B1, “MONENSIN FORMULATIONS” (Elli Lilly & Co.(NZ)Limited, priority 1995, dated 1997).

Tests used:
[1] = as indicated in EP 0,139,595 (monensin and its sodium salt) and US Patent 3,715,372 (lasalocid); cited from earlier work
[2] = Example 1 of EP 0,139,595: 250 g mycelium containing 10% monensin, 1250 cc propylene glycol, room temperature, 2 hours, ultrasound; cited from earlier work

Structure (SMILES) | solubility in water [1] | monensin found in solution in propylene glycol [2]
CC[C@@H](C(=O)[C@@H](C)[C@@H](O)[C@H](C)CCc1ccc(C)c(O)c1C(=O)O)[C@H]1O[C@](CC)([C@H]2CC[C@](O)(CC)[C@H](C)O2)C[C@@H]1C [lasalocid] | completely insoluble | 
CC[C@@]1([C@@H]2O[C@@H]([C@H]3O[C@@](O)(CO)[C@H](C)C[C@@H]3C)C[C@@H]2C)CC[C@H]([C@]2(C)CC[C@]3(C[C@H](O)[C@@H](C)[C@@H]([C@@H](C)[C@@H](OC)[C@H](C)C(=O)O)O3)O2)O1 [monensin] |  | 50%
